Data on eleven compounds can be found in ChEMBL document CHEMBL5465560, “Selectivity Literature for EUbOPEN Chemogenomic Library” (2024).

Test [1] deals with Serine/threonine-protein kinase 17A (Homo sapiens, UniProt Q9UEE5).
Test [2] deals with Serine/threonine-protein kinase PAK 4 (Homo sapiens, UniProt O96013). The test can be described thus: Selectivity interaction (Kinase panel (Z-LYTE Assay)) EUB0001632a PAK4. As to conditions: at 10 µM.
In test [3] the target is Atypical kinase COQ8A, mitochondrial (Homo sapiens, UniProt Q8NI60). The test can be described thus: Selectivity interaction (KinomeScan (DiscoverX)) EUB0000595a ADCK3. To be noted: at 10 µM.
The target of test [4] is T1, Membrane-associated tyrosine- and threonine-specific cdc2-inhibitory kinase (Homo sapiens) (UniProt Q99640).
T1 sequence (whole entry): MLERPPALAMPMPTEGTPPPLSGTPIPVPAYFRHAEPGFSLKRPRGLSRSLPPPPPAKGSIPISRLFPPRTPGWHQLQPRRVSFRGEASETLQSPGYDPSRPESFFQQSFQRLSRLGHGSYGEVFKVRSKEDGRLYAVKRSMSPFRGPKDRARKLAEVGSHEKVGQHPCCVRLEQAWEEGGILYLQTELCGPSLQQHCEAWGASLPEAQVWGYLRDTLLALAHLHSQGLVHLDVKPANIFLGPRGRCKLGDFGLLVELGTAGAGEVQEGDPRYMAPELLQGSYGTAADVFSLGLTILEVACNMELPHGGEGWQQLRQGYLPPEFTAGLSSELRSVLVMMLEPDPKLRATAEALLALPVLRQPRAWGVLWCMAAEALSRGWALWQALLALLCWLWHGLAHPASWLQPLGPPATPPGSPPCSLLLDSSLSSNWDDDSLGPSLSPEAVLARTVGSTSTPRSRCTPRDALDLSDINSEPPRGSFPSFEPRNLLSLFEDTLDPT
The test can be described thus: Selectivity interaction (KinomeScan (DiscoverX)) EUB0001619a PKMYT1. As to conditions: at 1 µM.

Test [5] concerns the target T2, Gamma-aminobutyric acid receptor subunit alpha-1 (Homo sapiens) (UniProt P14867).
T2 sequence (whole entry): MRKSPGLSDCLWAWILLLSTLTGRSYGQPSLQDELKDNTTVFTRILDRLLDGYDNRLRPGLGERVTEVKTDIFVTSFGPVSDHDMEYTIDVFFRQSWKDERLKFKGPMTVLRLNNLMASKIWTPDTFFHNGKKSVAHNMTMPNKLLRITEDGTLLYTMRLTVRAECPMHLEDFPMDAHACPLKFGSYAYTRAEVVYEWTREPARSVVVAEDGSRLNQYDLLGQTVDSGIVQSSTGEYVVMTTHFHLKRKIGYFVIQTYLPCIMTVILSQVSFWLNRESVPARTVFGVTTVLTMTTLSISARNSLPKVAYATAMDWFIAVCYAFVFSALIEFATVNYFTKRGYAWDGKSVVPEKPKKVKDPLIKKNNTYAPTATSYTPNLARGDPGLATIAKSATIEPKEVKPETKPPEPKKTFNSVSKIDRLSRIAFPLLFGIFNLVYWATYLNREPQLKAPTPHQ
The experiment in a line: Selectivity interaction (Eurofins CEREP Diversity Profile (receptors and ion channels)) EUB0000279b GABRA1. As to conditions: at 10 µM.

For a further test, the target named is Ephrin type-A receptor 4 (Homo sapiens, UniProt P54764). The test can be described thus: Selectivity interaction (ProQinase) EUB0000171b EPHA4.
Chain of Ephrin type-A receptor 4 (P54764 whole entry): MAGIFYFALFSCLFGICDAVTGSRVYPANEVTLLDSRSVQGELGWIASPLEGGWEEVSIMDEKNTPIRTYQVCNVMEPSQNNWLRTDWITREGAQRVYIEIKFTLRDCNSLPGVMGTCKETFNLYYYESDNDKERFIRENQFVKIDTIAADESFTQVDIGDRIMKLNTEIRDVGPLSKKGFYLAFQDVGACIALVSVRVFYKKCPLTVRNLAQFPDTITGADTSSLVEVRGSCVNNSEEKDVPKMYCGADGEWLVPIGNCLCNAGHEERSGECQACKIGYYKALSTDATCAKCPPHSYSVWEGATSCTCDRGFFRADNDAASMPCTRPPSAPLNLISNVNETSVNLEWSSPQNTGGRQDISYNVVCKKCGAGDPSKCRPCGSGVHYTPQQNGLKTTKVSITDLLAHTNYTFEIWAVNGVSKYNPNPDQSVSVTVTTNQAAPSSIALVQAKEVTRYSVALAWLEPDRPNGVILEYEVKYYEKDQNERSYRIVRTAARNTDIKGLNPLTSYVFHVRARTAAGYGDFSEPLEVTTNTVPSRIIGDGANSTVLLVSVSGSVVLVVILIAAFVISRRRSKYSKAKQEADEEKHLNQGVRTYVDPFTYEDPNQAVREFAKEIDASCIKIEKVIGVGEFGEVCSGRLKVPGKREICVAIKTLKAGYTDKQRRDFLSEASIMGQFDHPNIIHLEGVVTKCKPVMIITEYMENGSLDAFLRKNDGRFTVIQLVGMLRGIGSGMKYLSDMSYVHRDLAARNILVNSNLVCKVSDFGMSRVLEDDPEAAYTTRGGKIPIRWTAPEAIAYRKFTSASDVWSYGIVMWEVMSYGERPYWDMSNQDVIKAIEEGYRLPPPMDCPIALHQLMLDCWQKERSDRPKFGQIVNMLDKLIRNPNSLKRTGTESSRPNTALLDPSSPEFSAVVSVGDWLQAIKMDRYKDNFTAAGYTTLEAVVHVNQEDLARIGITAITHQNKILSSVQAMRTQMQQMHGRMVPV
A further test deals with Insulin receptor (Homo sapiens, UniProt P06213). The test can be described thus: Selectivity interaction (KinomeScan (DiscoverX)) EUB0001049a INSR. As to conditions: at 1 µM.
Chain of Insulin receptor (P06213 28-758 limits assumed): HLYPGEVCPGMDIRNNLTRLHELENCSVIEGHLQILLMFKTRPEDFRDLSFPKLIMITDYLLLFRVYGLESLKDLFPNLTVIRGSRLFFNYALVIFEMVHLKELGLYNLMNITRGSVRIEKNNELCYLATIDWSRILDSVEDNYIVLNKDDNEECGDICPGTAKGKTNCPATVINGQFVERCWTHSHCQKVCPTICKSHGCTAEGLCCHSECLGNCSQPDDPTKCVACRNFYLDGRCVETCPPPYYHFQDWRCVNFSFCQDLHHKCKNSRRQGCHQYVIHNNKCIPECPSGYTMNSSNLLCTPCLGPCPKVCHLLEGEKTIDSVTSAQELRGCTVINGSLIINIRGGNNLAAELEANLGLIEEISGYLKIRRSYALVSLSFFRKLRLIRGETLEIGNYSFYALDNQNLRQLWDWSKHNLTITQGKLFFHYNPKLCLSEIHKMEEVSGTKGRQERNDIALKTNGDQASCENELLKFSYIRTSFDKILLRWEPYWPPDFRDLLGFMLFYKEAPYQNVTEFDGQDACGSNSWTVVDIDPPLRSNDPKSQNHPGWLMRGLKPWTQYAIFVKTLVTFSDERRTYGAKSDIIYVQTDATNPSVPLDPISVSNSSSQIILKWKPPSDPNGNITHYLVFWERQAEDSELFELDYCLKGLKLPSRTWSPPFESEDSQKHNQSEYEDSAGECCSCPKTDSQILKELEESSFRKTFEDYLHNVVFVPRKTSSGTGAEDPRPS
Chain of Insulin receptor (P06213 763-1382 limits assumed): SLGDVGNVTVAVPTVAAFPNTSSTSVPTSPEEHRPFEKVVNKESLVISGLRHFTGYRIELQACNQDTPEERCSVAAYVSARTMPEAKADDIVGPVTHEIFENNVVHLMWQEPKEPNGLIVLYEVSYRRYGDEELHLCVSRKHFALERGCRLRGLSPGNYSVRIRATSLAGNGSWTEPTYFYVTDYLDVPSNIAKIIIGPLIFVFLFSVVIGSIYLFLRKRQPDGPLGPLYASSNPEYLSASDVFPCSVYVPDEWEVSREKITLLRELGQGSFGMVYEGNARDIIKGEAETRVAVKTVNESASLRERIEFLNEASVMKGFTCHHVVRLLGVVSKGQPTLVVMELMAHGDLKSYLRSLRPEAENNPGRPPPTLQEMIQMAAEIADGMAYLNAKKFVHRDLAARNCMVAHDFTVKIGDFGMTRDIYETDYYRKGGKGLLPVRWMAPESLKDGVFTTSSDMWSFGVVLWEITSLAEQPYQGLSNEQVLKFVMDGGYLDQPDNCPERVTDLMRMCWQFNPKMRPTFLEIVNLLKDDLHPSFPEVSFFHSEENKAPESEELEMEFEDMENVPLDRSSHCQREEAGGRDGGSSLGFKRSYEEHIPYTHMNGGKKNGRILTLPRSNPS
In test [6] the target is WD repeat-containing protein 5 (Homo sapiens) (UniProt P61964). The test can be described thus: Selectivity interaction (PWWP, WD40, and Tudor domain panel (DSLS measurements, literature)) EUB0000270b WDR5.
The target of test [7] is T3, Ephrin type-B receptor 1 (Homo sapiens) (UniProt P54762).
T3 sequence (whole entry): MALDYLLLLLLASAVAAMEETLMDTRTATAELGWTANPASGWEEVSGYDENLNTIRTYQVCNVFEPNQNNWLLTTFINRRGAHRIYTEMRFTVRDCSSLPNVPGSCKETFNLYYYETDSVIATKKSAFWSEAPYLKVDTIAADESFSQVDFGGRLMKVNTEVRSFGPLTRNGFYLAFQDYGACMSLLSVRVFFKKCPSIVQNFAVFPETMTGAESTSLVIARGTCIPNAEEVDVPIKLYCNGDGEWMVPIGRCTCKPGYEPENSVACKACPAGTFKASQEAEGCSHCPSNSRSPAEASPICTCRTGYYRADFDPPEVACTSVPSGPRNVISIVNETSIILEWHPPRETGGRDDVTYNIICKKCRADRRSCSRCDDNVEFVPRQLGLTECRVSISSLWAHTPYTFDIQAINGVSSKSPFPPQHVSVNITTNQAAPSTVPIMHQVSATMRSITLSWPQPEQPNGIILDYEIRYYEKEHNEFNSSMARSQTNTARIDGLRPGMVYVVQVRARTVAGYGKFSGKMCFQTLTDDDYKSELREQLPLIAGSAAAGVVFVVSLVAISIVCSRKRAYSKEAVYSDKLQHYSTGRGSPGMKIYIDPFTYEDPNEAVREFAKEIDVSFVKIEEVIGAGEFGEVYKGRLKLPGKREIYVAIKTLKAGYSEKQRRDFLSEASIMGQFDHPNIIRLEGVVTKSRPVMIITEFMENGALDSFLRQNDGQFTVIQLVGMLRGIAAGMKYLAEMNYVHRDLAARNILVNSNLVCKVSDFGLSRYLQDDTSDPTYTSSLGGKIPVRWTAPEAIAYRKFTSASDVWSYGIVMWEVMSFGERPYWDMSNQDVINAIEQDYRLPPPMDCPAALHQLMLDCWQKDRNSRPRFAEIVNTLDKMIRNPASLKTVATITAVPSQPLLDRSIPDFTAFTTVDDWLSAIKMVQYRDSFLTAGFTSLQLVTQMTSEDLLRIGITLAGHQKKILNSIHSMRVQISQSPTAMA
The test can be described thus: Selectivity interaction (KinomeScan (DiscoverX)) EUB0000092b EPHB1. To be noted: at 10 µM.

For test [8], the target named is Transcription initiation factor TFIID subunit 1-like (Homo sapiens) (UniProt Q8IZX4). The experiment in a line: Selectivity interaction (Human bromodomain panel (DSF assay)) EUB0000233b TAF1L.
Chain of Transcription initiation factor TFIID subunit 1-like (Homo sapiens) (Q8IZX4 whole entry): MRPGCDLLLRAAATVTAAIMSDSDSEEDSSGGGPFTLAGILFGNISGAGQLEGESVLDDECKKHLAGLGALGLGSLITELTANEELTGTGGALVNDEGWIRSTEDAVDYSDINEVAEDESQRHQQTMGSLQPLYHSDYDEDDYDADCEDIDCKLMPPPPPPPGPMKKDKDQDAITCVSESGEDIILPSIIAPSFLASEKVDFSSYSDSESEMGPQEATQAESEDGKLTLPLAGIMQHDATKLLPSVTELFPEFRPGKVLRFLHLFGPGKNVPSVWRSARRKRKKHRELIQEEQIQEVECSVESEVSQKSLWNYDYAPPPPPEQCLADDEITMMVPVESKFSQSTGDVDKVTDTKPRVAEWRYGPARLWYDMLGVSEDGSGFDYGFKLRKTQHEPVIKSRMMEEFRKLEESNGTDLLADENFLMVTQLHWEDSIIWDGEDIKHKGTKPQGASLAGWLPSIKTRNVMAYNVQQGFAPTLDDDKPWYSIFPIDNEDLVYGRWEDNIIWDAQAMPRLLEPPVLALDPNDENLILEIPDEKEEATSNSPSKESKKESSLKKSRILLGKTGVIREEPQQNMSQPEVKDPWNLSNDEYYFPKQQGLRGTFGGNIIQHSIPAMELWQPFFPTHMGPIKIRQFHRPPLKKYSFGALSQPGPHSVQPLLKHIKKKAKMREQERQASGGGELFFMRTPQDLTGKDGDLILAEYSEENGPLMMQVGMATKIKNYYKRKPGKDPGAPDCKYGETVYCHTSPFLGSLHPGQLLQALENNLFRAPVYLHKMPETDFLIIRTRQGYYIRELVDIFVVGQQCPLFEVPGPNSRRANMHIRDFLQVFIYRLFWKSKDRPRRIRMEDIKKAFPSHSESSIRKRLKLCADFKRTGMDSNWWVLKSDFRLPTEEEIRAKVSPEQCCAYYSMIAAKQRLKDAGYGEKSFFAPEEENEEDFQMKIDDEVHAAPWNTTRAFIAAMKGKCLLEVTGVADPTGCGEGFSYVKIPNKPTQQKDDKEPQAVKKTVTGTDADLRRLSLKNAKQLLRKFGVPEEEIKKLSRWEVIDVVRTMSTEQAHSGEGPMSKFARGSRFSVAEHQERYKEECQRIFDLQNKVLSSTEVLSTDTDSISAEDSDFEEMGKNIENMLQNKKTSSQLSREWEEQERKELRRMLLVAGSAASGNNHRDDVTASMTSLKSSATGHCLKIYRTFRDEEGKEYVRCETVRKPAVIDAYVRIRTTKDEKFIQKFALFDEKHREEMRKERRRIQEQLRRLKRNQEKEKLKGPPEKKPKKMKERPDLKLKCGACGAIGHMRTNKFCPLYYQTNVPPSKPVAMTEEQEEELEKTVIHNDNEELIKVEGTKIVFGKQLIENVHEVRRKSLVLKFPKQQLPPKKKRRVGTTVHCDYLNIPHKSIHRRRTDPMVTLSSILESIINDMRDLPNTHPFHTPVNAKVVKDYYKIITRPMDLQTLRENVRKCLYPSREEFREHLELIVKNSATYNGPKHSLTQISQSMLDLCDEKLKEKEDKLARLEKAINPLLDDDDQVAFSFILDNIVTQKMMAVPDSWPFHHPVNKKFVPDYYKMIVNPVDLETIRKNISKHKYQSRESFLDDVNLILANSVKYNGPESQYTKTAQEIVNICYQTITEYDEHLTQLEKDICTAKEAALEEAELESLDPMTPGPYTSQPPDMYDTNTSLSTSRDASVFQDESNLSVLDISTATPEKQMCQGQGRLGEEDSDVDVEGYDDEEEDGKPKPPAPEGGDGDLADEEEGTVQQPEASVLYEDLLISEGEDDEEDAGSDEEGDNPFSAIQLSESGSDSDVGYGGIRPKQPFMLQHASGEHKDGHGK
The target in test [9] is Death-associated protein kinase 3 (Homo sapiens) (UniProt O43293). The experiment in a line: Selectivity interaction (Kinase panel (DSF assay)) EUB0001558a DAPK3.

Chain of Serine/threonine-protein kinase PAK 4 (O96013 whole entry, looked up): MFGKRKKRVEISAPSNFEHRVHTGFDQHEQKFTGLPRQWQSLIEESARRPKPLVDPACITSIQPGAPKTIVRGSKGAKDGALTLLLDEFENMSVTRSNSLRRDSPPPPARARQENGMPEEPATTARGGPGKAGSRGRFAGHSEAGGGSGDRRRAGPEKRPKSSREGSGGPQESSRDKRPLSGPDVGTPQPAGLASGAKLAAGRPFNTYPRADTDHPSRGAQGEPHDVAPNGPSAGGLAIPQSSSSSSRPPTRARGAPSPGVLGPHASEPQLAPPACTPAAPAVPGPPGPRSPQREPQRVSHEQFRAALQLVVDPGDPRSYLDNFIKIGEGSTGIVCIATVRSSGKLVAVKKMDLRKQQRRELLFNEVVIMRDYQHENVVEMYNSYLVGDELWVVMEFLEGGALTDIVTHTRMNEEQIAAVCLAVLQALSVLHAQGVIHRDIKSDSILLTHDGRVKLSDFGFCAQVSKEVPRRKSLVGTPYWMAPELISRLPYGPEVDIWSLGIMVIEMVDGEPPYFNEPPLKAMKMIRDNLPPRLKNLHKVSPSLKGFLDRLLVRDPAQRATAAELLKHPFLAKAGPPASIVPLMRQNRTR

For the compound `CN1CCN(C(=O)c2ccc3cc2OCCOCCNc2ccn4ncc-3c4n2)CC1`, in test [1], the IC50 (as a rule, the concentration that gives 50% inhibition) came to 20 µM.
`Cn1cc(-n2cnc3c(NCc4nc5cc(Cl)c(Cl)cc5[nH]4)nc(N4CCOCC4)nc32)cn1` came in with a % of control in test [2] of 7.15%.
With `COCC(=O)NC/C=C/c1ccc2ncnc(Nc3ccc(Oc4ccc(C)nc4)c(C)c3)c2c1` [CP-724714], the % of control in test [3] was 100%.
With `N#Cc1cccc(-c2c[nH]c3ncnc(N4CCOCC4)c23)c1`, the % of control in test [4] worked out at 73%.
Turning to `CC(=O)c1cc(-c2ccccc2OCC2CC2)c2ncccn12`, the % of control in test [5] worked out at 112%.
On to `C=CC(=O)Nc1cccc(C(=O)Nc2ccc(Nc3cc(-c4[nH]c(SC)nc4C)ccn3)cc2)c1`, for which the % of control at Ephrin type-A receptor 4 (at 1 µM) is 93%; at Ephrin type-A receptor 4 (at 5 µM), 78%.
With `COc1cc(Nc2nc(C)cc(-c3cnn4nc(OC)ccc34)n2)cc(C(F)(F)F)c1`, at Insulin receptor, the % of control came out at 71%.
In turn, `Cc1cc(CN)cc(C)c1-c1ncn(C)c1-c1cncn1C` displayed a dTagg in test [6] of -0.7 K.
With `CCC(=O)N1CCN(c2ccc(-n3c(=O)ccc4cnc5ccc(-c6cnc7ccccc7c6)cc5c43)cc2C(F)(F)F)CC1`, in [7], the % of control worked out at 100%.
Regarding `CN(C)CCCOc1ccc(-c2cc(NCCCn3cccn3)nc(S(C)(=O)=O)n2)cc1`, the dTM in [8] was less than 2 K.
As for `CC(C)(O)[C@H](F)CN1Cc2cc(NC(=O)c3cnn4cccnc34)c(N3CCOCC3)cc2C1=O`, the dTM in test [9] is 1.8 K.
